Data set [1] is described as follows: Cytotoxic and cytostatic activity in vitro using the THP1 cell line (MTT). The class given is cell-based. As to conditions: human, thp1 cells; after 24 h incubation, IFNγ 100 U/ml and LPS 5 μg/ml; read-out: IC50, cytotoxicity THP1 (MTT). The procedure: 3. Cytotoxic and Cytostatic Activity in Vitro Using the THP1 Cell Line
Cytotoxicity is determined using the human monocytic cell line THP1 (5×10^4 cells/well) which are incubated in the presence of IFNγ (100 U/ml)and LPS (5 μg/ml) plus test compound (up to 10 μM) for 24 to 72 h at 37° C. Living cells are quantified using the colourimetric read-out MTT which measures mitochondrial dehydrogenase enzymatic activity in living cells (Mossman 1983). Macrolides of the invention, e.g. compounds of formula IX and their pharmaceutically acceptable salts, e.g. Sanglifehrins A, B, C and D, have IC50 s of about 1000-5000 nM after 24 h incubation in this assay.

The subject of data set [2] is Localised Graft-versus-Host (GvH) reaction. The data set can be described thus: Localised graft-versus-host (GvH) reaction in the rat. The class given is in vivo. As to conditions: dose of about 1 mg/kg s.c., 4 consecutive days, lymph node weight on day 7. The method, then: 6. Localised Graft-versus-Host (GvH) Reaction in the Rat
Spleen cells (1×10^7) from 6 week old female Wistar/Furth (WF) rats are injected subcutaneously on day 0 into the left hind-paw of female (F344×WF)F1 rats weighing about 100 g. Animals are treated for 4 consecutive days and the popliteal lymph nodes are removed and weighed on day 7. The difference in weight between the two lymph nodes is taken as the parameter for evaluating the reaction.

The subject of data set [3] is Tumour Necrosis Factor (TNF) α release by peripheral blood mononuclear cells. The data set can be described thus: TNF release by human peripheral blood mononuclear cells. The class given is cell-based. As to conditions: PBMC, IFNγ 100 U/ml and LPS 5 μg/ml, 3 h incubation, ELISA. The method, then: 4. TNF Release by Human Peripheral Blood Mononuclear Cells
Mononuclear cells are prepared from the peripheral blood of healthy volunteers using Ficoll-Hypaque density separation according to the method of Hansell et al. (1991). Cells (10^5 cells/well in 200 μl RPMI 10% FCS by volume) are incubated with serial dilutions of the test compounds for 30 min at 37° C. prior to the addition of stimulus. Interferon γ (100 U/ml) and LPS (5 μg/ml) are used as stimuli to induce Tumour Necrosis Factor (TNF) α release by peripheral blood mononuclear cells. After 3 h incubation, the cells are centrifuged (1200 rpm for 10 min) and the supernatants are collected. The amount of TNF present in the cell supernatants is determined using a commercially available enzyme-linked immunosorbent assay kit.
On the technique in general: An ELISA detects its analyte on a solid surface through an enzyme-linked reagent.

The next data set has as its system DTH footpad swelling. In words: DTH induced by SRBC-TH cells. Format: in vivo, C57 BL/6 mice. As to conditions: doses of the order of 5 mg/kg s.c., footpad thickness after 24 hours. The procedure:
7. DTH Induced by SRBC-TH Cells
50 μl of the SRBC cell suspension (diluted 1:1 v/v with PBS) is injected s.c. into the left hind footpad (to measure non specific increase in footpad swelling due to the injection procedure). Right and left hind footpad thickness is measured 24 hours later.
The percent increase in thickness of the right footpad over the left footpad (z) is calculated. Thickness of right footpad=x. thickness of left footpad=y; % specific increase=z

Data set [4] concerns LPS-stimulated Murine B-cells. The data set can be described thus: LPS-stimulated murine B-cell proliferation. As to conditions: Mus musculus, 48 hours with 50 μg/ml LPS, labelled precursor incorporation into DNA, read-out: IC50, inhibition of B-cell proliferation. The class given is cell-based, CBA mice. The procedure: LPS-stimulated Murine B-cells
Spleen cells (2×10^5) from CBA mice are incubated for 48 hours with 50 μg/ml LPS plus test compound. Proliferation is measured by labelled precursor incorporation into DNA.

Data set [5] deals with human recombinant cyclophilin A (Homo sapiens, UniProt P62937). The data set can be described thus: Cyclophilin binding assay (competitive ELISA / competitive binding test). As to conditions: competition with coated BSA-cyclosporin A. From the text: 5. Cyclophilin Binding Assay
human recombinant cyclophilin A, sequence (P62937 whole entry): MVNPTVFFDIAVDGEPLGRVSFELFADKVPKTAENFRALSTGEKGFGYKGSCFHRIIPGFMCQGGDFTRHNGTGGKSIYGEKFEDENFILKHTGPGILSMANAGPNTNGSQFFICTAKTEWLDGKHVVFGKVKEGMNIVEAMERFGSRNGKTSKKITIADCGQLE
A suitable cyclophilin binding assay is the competitive ELISA test described by Quesniaux in Eur. J. Immunol. 1987 17 1359-1365.

The next data set has as its system calcineurin. The data set can be described thus: Calcineurin activity (standard test). The class given is biochemical. As to conditions: standard tests.
Data set [6] deals with spleen cells from Balb/c mice co-incubated with spleen cells from CBA mice. The data set can be described thus: Two-way MLR (murine mixed lymphocyte reaction). As to conditions: Mus musculus, 96 h, 4 days co-incubation, labelled precursor incorporation into DNA, read-out: IC50, proliferative response in two-way MLR. The class given is cell-based. The procedure: 1. Proliferative Response Of Lymphocvtes to Allogenic Stimulation
Two-way MLR (Murine Mixed Lymphocyte Reaction)
Spleen cells (2×10^5) from Balb/c mice (female, 8-10 weeks) are co-incubated for 4 days with 2×10^5 spleen cells from CBA mice (female, 8-10 weeks). The allogenic cells induce a proliferative response in the responder spleen cell population which is measured by labelled precursor incorporation into the DNA.

Another data set has as its target FK binding protein (Homo sapiens, UniProt P62942). In words: FK binding protein binding (standard test). As to conditions: standard tests.
The test system of data set [7] is heart allograft. In words: Mouse heart allotransplantation (BALB/c to C3H). The class given is in vivo. As to conditions: doses of the order of 30 mg/kg/day, s.c. Alzet osmotic minipumps. The method, then:
(§1) 8. Rat/Mouse Heart Allotransplantation
(§2) The in vivo efficacy of macrolides of the invention is assessed in rat and mouse heart allotransplantation using Alzet osmotic minipumps for s.c. administration.

The test system of data set [8] is heart allograft. In words: Rat heart allotransplantation (DA to Lewis). The class given is in vivo. As to conditions: in combination with suboptimal doses of cyclosporin A. The method, then:
as §1, §2

FK binding protein, sequence (P62942 whole entry): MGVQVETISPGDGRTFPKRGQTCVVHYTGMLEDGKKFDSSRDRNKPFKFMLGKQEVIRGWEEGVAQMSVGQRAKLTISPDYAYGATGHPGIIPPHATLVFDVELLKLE

Regarding `CCC1CC(C)C2(NC1=O)OC(CC(O)C(C)CCC=CC=C(C)C1CC=CC=CC(O)C(C)C(O)C(CCC(C)=O)C(=O)NC(C(C)C)C(=O)NC(Cc3cccc(O)c3)C(=O)N3CCCC(N3)C(=O)O1)C(C)C=C2C` (stereo not drawn) [Sanglifehrin B], the CC50 at 24 h in data set [1] is 1000 to 5000 nM. For the same molecule, the “inhibition of the GvH reaction” value in data set [2] was “up to 30%”. Further, the IC50 in data set [3] is 200 to 1000 nM; in data set [4], 40000 to 100000 nM; in data set [5], 10 to 100 nM; in [6], 30 to 200 nM. For the same molecule, the “reduction of swelling of the DTH mouse” value in the data set on DTH footpad swelling is recorded as “up to 50%”. The “inhibition of calcineurin activity” value in the data set with calcineurin is “do not inhibit calcineurin activity”. Moreover, the “FK binding protein binding activity” value on FK binding protein is “do not have FK binding protein binding activity”. In the data set on heart allograft [7], the “graft survival (in words), mouse heart allotransplantation” value was “prolong graft survival”. Besides, the “graft survival (in words), rat heart allotransplantation” value in the data set with heart allograft [8] is “prolonged graft survival”.

Regarding `CCC1CC(C)C2(NC1=O)OC(CC(O)C(C)CCC=CC=C(C)C1CC=CC=CC(O)C(C)C3OC(C)(OC)CCC3C(=O)NC(C(C)C)C(=O)NC(Cc3cccc(O)c3)C(=O)N3CCCC(N3)C(=O)O1)C(C)C(O)C2C` (stereo not drawn) [Sanglifehrin C], in data set [1], the CC50 at 24 h lay in the range of 1000 to 5000 nM. Moreover, the “inhibition of the GvH reaction” value in [2] was “up to 30%”. For the same molecule, the IC50 in data set [3] was in the range of 200 to 1000 nM; in data set [4], 40000 to 100000 nM; in data set [5], 10 to 100 nM; in data set [6] it was 30 to 200 nM. The “reduction of swelling of the DTH mouse” value in the data set on DTH footpad swelling was “up to 50%”. In the data set with calcineurin, the “inhibition of calcineurin activity” value is reported as “do not inhibit calcineurin activity”. Besides, the “FK binding protein binding activity” value on FK binding protein is reported as “do not have FK binding protein binding activity”. In addition, in the data set with heart allograft [7], the “graft survival (in words), mouse heart allotransplantation” value is listed as “prolong graft survival”. Also, the “graft survival (in words), rat heart allotransplantation” value in the data set on heart allograft [8] is on record as “prolonged graft survival”.

`CC[C@H]1C[C@H](C)[C@@]2(NC1=O)O[C@@H](C[C@H](O)[C@@H](C)CC/C=C/C=C(\C)[C@@H]1C/C=C/C=C/[C@H](O)[C@H](C)[C@@H](O)[C@@H](CCC(C)=O)C(=O)N[C@@H](C(C)C)C(=O)N[C@@H](Cc3cccc(O)c3)C(=O)N3CCC[C@H](N3)C(=O)O1)[C@H](C)[C@H](O)[C@@H]2C` [Sanglifehrin A]: the CC50 at 24 h in [1] lay in the range of 1000 to 5000 nM. For the same molecule, the IC50 lay in the range of 200 to 1000 nM in data set [3], 40000 to 100000 nM in data set [4] and 30 to 200 nM in [6]. Further, in the data set on DTH footpad swelling, the “reduction of swelling of the DTH mouse” value is reported as “up to 50%”. Besides, the “FK binding protein binding activity” value at FK binding protein was “do not have FK binding protein binding activity”. Besides, in the data set with heart allograft [7], the “graft survival (in words), mouse heart allotransplantation” value was “prolong graft survival”. Moreover, in the data set with heart allograft [8], the “graft survival (in words), rat heart allotransplantation” value was “prolonged graft survival”.

The values above are taken from patent US6124453A, “Macrolides” (Novartis AG, priority 1995, dated 2000).
